Results reported in patent US6235761A, “Compound, composition and method for treating cancer” (priority 1999, dated 2001).

Experiments:
[1] = system: MX-1 mammary tumor; assay: sc MX-1 mammary tumor in athymic mice (Table 2); type: in vivo, human tumor in athymic mice (Ncr-nu)
Protocol: (§1) This Example illustrates the efficacy of penclomedine and 4-demethylpenclomedine in the treatment of cancer. MX-1 mammary tumor xenograft was subcutaneously implanted into mice, and the mice were exposed to the compounds. The testing of the mice was performed following a published procedure. See, e.g., Plowman et al., supra; Geran et al., Cancer Chemother. Rep., Part 2, 1-55 (1972); Developmental Therapeutics Program, Division of Cancer Treatment, NCI, in In Vivo Models 1976-1982, NIH Publication No. 84-2635, Washington D.C., U.S. Govt. Printing Office (1984).
(§2) This Example further illustrates the efficacy of penclomedine and 4-demethylpenclomedine in the treatment of cancer. The compounds were tested in vivo on mice by the procedure set forth in Example 2. The results obtained are set forth in Table 2 and confirm that 4-demethyl-penclomedine is active against cancer, particularly mammary, colon, and renal cancer.
(§3) ^a Athymic mice (Ncr-nu) were implanted either intracranially (ic) with
(§4) […] MX-1 mammary tumor cells or subcutaneously (sc) with fragments of
(§5) human tumors (CAKI-, renal; HT29, colon; MX-1, mammary).
(§6) ^b The difference in the median of time poststaging for tumors to
(§7) double in mass: T (treated mice), C (control mice)

[2] = system: CAKI-1 renal tumor; assay: sc CAKI-1 renal tumor in athymic mice (Table 2); type: in vivo, human tumor in athymic mice (Ncr-nu); conditions: for T-C / Tumor-Free Survival/Total: days 19-23
Protocol: as §1, §2, §3, §4, §5, §6, §7

[3] = system: MX-1 Mammary Tumor Xenograft; assay: Subcutaneously-implanted MX-1 mammary tumor xenograft in mice (Table 1); type: in vivo, human tumor in mice; conditions: for Days to 2 Doublings / Non-Specific Deaths / Total / Tumor Free Survival/Total / Tumor Delay (T-C) / Tumor Regression, Complete / Tumor Regression, Partial / Duration of regression, Med: x5, from Day 12; for Tumor Delay (T-C): control 8.0 days; for Tumor Regression, Complete / Tumor Regression, Partial: number of mice
Protocol: as §1
Response of Subcutaneously-Implanted MX-1 Mammary Tumor Xenograft to
^1 Treatment started on Day 12 following tumor implant.
^2 Nonspecific deaths: A treated, tumored animal was presumed to be a
^3 Tumor regression was scored (excluding nonspecific deaths),
^4 Duration of regression: the interval during which a tumor classified
^5 Evaluation size: this value is the tumor mass selected at one or two
^6 Time required for tumor mass doubling: the time required for a tumor
^7 T-C (days): the difference in the median of times postimplant for […]

[4] = system: MX-1 mammary tumor cells; assay: ic MX-1 mammary tumor in athymic mice, increased life span (Table 2); type: in vivo, human tumor in athymic mice (Ncr-nu); conditions: days 1-5
Protocol: as §1, §2, §3, §4, §5
^c % ILS (increased life span) values are not provided where the mice
were sacrificed when tumors reached 4 g mass.

[5] = Human plasma levels of penclomedine and demethylpenclomedine during 5 day penclomedine treatment; type: in vivo, human patients
Excerpt: FIG. 1 depicts levels of penclomedine and the demethylpenclomedine metabolite in human plasma, as determined by HPLC chromatographic analysis with uv detection.
FIG. 2 depicts the penclomedine (gray shade) and demethylpenclomedine (white) levels in human plasma on each of five treatment days. Data are from a single patient and are typical. The same ordinate scale is used for both penclomedine and demethylpenclomedine. Pre-infusion levels are depicted without cross hatchings; end of infusion levels are depicted with cross hatchings.
A 1 ml aliquot of tissue homogenate or a […] was acidified with 200 ml of 0.7 M ammonium phosphate pH 2.7, then 3 ml of ethyl acetate was added. This mixture was vortexed, centrifuged and the organic layer was collected. Fifty microliters of DMSO were added, and the ethyl acetate was concentrated to approximately […] with a stream of dry nitrogen. Fifty microliters of acetonitrile were added to this residue, and the resulting solution was analyzed by HPLC. Human plasma was processed identically to mouse plasma with the exception that 500 ml of plasma was extracted. Concentrated cage washings were analyzed by HPLC without further processing.
HPLC Assays: The HPLC system consisted of a Hewlett-Packard Series II 1090 liquid chromatograph with diode array detector (Hewlett-Packard, Palo Alto, Calif.). The column used was an Alltech Adsorbosphere HS C18 5 m 250×4.6 mm column (Alltech Associates, Deerfield, Ill.). The system used a gradient elution consisting of 100% 10 mM ammonium phosphate buffer pH 2.7 progressing to 100% acetonitrile over 25 minutes at 1 ml/min. Detection was performed by means of ultraviolet absorbance at 240 nm as well as by means of radioactivity using a Radiomatic Flo-One/Beta A140 radioactive flow detector (Packard Instrument Co., Downers Grove, Ill.) equipped with a […] and Flo-Scint VI scintillation cocktail at a 2:1 ratio.
This example illustrates the distribution of penclomedine and 4-demethylpenclomedine in human plasma during a 5 day treatment schedule using penclomedine.
Plasma levels of the metabolite and penclomedine were determined in 9 patients during the 5 day treatment schedule. […] Demethylpenclomedine plasma levels were equal to penclomedine plasma levels by 10 min after end of the infusion and rose to 9.5 μM by 7 hrs. […] The ratio of demethylpenclomedine to penclomedine in the post-infusion plasma sample obtained on day 1 of treatment was approximately 1:1; however, impressive accumulation of demethylpenclomedine was noted during the five day treatment schedule and by the final day this ratio was often greater than 10. […] A summary of post-infusion demethylpenclomedine plasma levels determined on each day of treatment for 9 patients is set forth in Table 4.

[6] = system: HT29 colon tumor; assay: sc HT29 colon tumor in athymic mice (Table 2); type: in vivo, human tumor in athymic mice (Ncr-nu); conditions: for T-C / Tumor-Free Survival/Total: days 14-18
Protocol: as §1, §2, §3, §4, §5, §6, §7

[7] = 135 mg/kg/dose oral, highest dosage level, days 13-17
[8] = 135 mg/kg/dose oral, highest dosage level
[9] = 1 hr i.v. infusion penclomedine 315 mg/m^2
[10] = human plasma, single patient, FIG. 1
[11] = repeated administration of penclomedine
[12] = five day samples, same patient, FIG. 2

In the case of COc1nc(C(Cl)(Cl)Cl)c(Cl)c(O)c1Cl [4-Demethylpenclomedine, 3,5-dichloro-2-methoxy-4-hydroxy-6-(trichloromethyl)-pyridine], the T-C ([1]; 90 mg/kg/dose IP, days 12-16) is reported as over 41.0 days, the “Tumor-Free Survival/Total” value ([1]; 90 mg/kg/dose IP, days 12-16) is reported as 3/5 and the T-C ([1]; 90 mg/kg/dose IP, days 15-19) is reported as over 37.2 days. For the same molecule, the “Tumor-Free Survival/Total” value ([1]; 90 mg/kg/dose IP, days 15-19) was 3/5, the T-C [1, 7] was 36.7 days and the “Tumor-Free Survival/Total” value [1, 7] was 2/5. The “T-C, comparison of the two compounds” value ([1]; Table 2) was “nearly identical T-C”, the “activity against MX-1 tumors (T-C)” value ([1]; Table 2) was “active against MX-1, colon, and renal tumors” and the T-C ([2]; 90 mg/kg/dose IP) was 14.5 days. The “Tumor-Free Survival/Total” value ([2]; 90 mg/kg/dose IP) was 0/5, the “activity against renal tumors (T-C)” value ([2]; Table 2) was “active against MX-1, colon, and renal tumors” and the “Days to 2 Doublings” value ([3]; 60 mg/kg IP) was 23.4 days. The “Non-Specific Deaths / Total” value ([3]; 60 mg/kg IP) was 0/5, the “Tumor Free Survival/Total” value ([3]; 60 mg/kg IP) was 2/5 and the “Tumor Delay (T-C)” value ([3]; 60 mg/kg IP) was 15.4 days. The “Tumor Regression, Complete” value ([3]; 60 mg/kg IP) was 2, the “Tumor Regression, Partial” value ([3]; 60 mg/kg IP) was 0 and the “Days to 2 Doublings” value ([3]; 90 mg/kg IP) was over 49.0 days. The “Duration of regression, Med” value ([3]; 90 mg/kg IP) was 32.5 days, the “Non-Specific Deaths / Total” value ([3]; 90 mg/kg IP) was 0/5 and the “Tumor Free Survival/Total” value ([3]; 90 mg/kg IP) was 3/5. For the same molecule, the “Tumor Delay (T-C)” value ([3]; 90 mg/kg IP) was over 41.0 days, the “Tumor Regression, Complete” value ([3]; 90 mg/kg IP) was 5 and the “Tumor Regression, Partial” value ([3]; 90 mg/kg IP) was 0. For the same molecule, the “Days to 2 Doublings” value ([3]; 135 mg/kg IP) was over 49.0 days, the “Duration of regression, Med” value ([3]; 135 mg/kg IP) was 35.7 days and the “Non-Specific Deaths / Total” value ([3]; 135 mg/kg IP) was 1/5. For the same molecule, the “Tumor Free Survival/Total” value ([3]; 135 mg/kg IP) was 3/5, the “Tumor Delay (T-C)” value ([3]; 135 mg/kg IP) was over 41.0 days and the “Tumor Regression, Complete” value ([3]; 135 mg/kg IP) was 4. For the same molecule, the “Tumor Regression, Partial” value ([3]; 135 mg/kg IP) was 0, the “tumor growth delay, comparison of the two compounds” value ([3]; Table 1) was “identical tumor growth delay” and the “Median % ILS (dying mice only)” value ([4]; 90 mg/kg/dose IP) was “+60%”. The “Tumor-Free Survival/Total” value ([4]; 90 mg/kg/dose IP) was 0/5, the “Median % ILS (dying mice only)” value [4, 8] was “+66%” and the “Tumor-Free Survival/Total” value [4, 8] was 1/5. The “accumulation over the 5 day treatment” value ([5]; 9 patients) was “accumulation of metabolite was observed in all 9 patients”, the “time after end of infusion at which plasma levels equal those of penclomedine” value [5, 9] was at most 10 min and the “time present in plasma” value ([5]; clinical samples) was over 24 h. The “ratio of demethylpenclomedine to penclomedine in plasma” value ([5]; final day of five day schedule, often) was “greater than 10”, the persistence in plasma ([5]; five day treatment schedule) was “persisted in the plasma for an extended period of time” and the “plasma level time course” value [5, 10] was “continues to increase with time”. The “drug exposure relative to parent compound” value [5, 11] was “several hundred times that of the parent compound”, the “plasma level relative to peak plasma level of penclomedine” value [5, 11] was “greater than ten times the peak plasma level of penclomedine” and the T-C ([6]; 90 mg/kg/dose IP) was 6.0 days. The “Tumor-Free Survival/Total” value ([6]; 90 mg/kg/dose IP) was 0/5 and the “activity against colon tumors (T-C)” value ([6]; Table 2) was “active against MX-1, colon, and renal tumors”.

In the case of COc1nc(C(Cl)(Cl)Cl)c(Cl)c(OC)c1Cl [Penclomedine, 3,5-dichloro-2,4-dimethoxy-6-(trichloromethyl)pyridine], the T-C ([1]; 135 mg/kg/dose IP, days 12-16) is reported as over 41.0 days, the “Tumor-Free Survival/Total” value ([1]; 135 mg/kg/dose IP, days 12-16) is reported as 5/5 and the T-C ([1]; 135 mg/kg/dose IP, days 13-17) is reported as over 38.5 days. For the same molecule, the “Tumor-Free Survival/Total” value ([1]; 135 mg/kg/dose IP, days 13-17) was 5/5, the T-C ([1]; 135 mg/kg/dose IP, days 15-19) was over 37.2 days and the “Tumor-Free Survival/Total” value ([1]; 135 mg/kg/dose IP, days 15-19) was 5/5. For the same molecule, the “T-C, comparison of the two compounds” value ([1]; Table 2) was “nearly identical T-C”, the “survival rate, compared with 4-demethylpenclomedine” value ([1]; Table 2) was “slightly higher survival rate” and the T-C ([2]; 135 mg/kg/dose IP) was 15.3 days. For the same molecule, the “Tumor-Free Survival/Total” value ([2]; 135 mg/kg/dose IP) was 0/5, the “Days to 2 Doublings” value ([3]; 60 mg/kg IP) was over 49.0 days and the “Non-Specific Deaths / Total” value ([3]; 60 mg/kg IP) was 0/5. For the same molecule, the “Tumor Free Survival/Total” value ([3]; 60 mg/kg IP) was 4/5, the “Tumor Delay (T-C)” value ([3]; 60 mg/kg IP) was over 41.0 days and the “Tumor Regression, Complete” value ([3]; 60 mg/kg IP) was 5. For the same molecule, the “Tumor Regression, Partial” value ([3]; 60 mg/kg IP) was 0, the “Days to 2 Doublings” value ([3]; 90 mg/kg IP) was over 49.0 days and the “Non-Specific Deaths / Total” value ([3]; 90 mg/kg IP) was 0/5. For the same molecule, the “Tumor Free Survival/Total” value ([3]; 90 mg/kg IP) was 5/5, the “Tumor Delay (T-C)” value ([3]; 90 mg/kg IP) was over 41.0 days and the “Tumor Regression, Complete” value ([3]; 90 mg/kg IP) was 5. The “Tumor Regression, Partial” value ([3]; 90 mg/kg IP) was 0, the “Days to 2 Doublings” value ([3]; 135 mg/kg IP) was over 49.0 days and the “Non-Specific Deaths / Total” value ([3]; 135 mg/kg IP) was 0/5. The “Tumor Free Survival/Total” value ([3]; 135 mg/kg IP) was 5/5, the “Tumor Delay (T-C)” value ([3]; 135 mg/kg IP) was over 41.0 days and the “Tumor Regression, Complete” value ([3]; 135 mg/kg IP) was 5. For the same molecule, the “Tumor Regression, Partial” value ([3]; 135 mg/kg IP) was 0, the “survival rate, compared with 4-demethylpenclomedine” value ([3]; Table 1) was “slightly higher survival rate” and the “tumor growth delay, comparison of the two compounds” value ([3]; Table 1) was “identical tumor growth delay”. For the same molecule, the “Median % ILS (dying mice only)” value ([4]; 90 mg/kg/dose IP) was “+88%”, the “Tumor-Free Survival/Total” value ([4]; 90 mg/kg/dose IP) was 0/5 and the “Median % ILS (dying mice only)” value ([4]; 90 mg/kg/dose oral) was “+72%”. The “Tumor-Free Survival/Total” value ([4]; 90 mg/kg/dose oral) was 0/5, the “decline of plasma levels after infusion” value [5, 9] was “rapidly declined in an apparently biexponential fashion” and the post-infusion plasma level [5, 12] was “always less than μM”. For the same molecule, the pre-infusion plasma level [5, 12] was “barely detectable”, the “plasma level time course” value [5, 10] was “rapidly cleared from plasma” and the “α of biexponential decay” value [5, 10] was 3.88 h⁻¹. For the same molecule, the k el ([5]; in vivo, iv, human plasma, single patient, FIG. 1, read-out: β of biexponential decay (converted)) was 0.000127 s⁻¹, the T-C ([6]; 135 mg/kg/dose IP) was 1.5 days and the “Tumor-Free Survival/Total” value ([6]; 135 mg/kg/dose IP) was 0/5.
